Values of other authors in patent US20190151634A1, “TREATMENT OF EXCESSIVE MENSTRUAL BLOOD LOSS BY FEMININE SANITARY PRODUCTS MEDICATED WITH HEMOSTATIC AGENT” (ARSTAT, INC., priority 2011, published 2019).

What was measured:
[1] = mouthwash, compared to placebo
[2] = oral, 6 g/day (EMEA review)
[3] = locally administered, without detectable plasma drug levels
[4] = after administration of an oral tablet

Row | plasma concentrations (after a mouth rinse) | saliva concentrations, maximum level (after a mouth rinse) | time saliva concentration remained at a therapeutic level (after a mouth rinse) | drug in saliva samples [4] | mean drug plasma concentrations [4] [ng/mL] | Molecule | incidence of postoperative bleeding complications [1] | risk of gastrointestinal adverse events [2] | postoperative blood loss [3]
1 | below 2 mcg/mL | above 200 mcg/mL | more than two hours | not detected | 7000 | NC[C@H]1CC[C@H](C(=O)O)CC1 [tranexamic acid] | reduce the incidence of postoperative bleeding complications | increased | –
2 | – | – | – | – | – | aprotinin | – | – | Reduction of the postoperative blood loss
